Reference: PMC8521193, “A Novel Polyphenol Oxidoreductase OhLac from Ochrobactrum sp. J10 for Lignin Degradation” (Frontiers in Microbiology, 2021)
One block for each compound: values may come before it.

Legend:
Assay in all cases: spectrophotometric oxidation, […] nm
Type in all cases: biochemical
OhLac [1] = test system: T1, OhLac; conditions: pH 5.0, 30°C, Cu2+ 5.00 mM
T1 construct: full length, 837 bp ORF, 279 aa as printed, about 31 kDa; pET28a(+) NcoI/XhoI; N-terminal His6 printed (these sites would rather give a C-terminal His6); E. coli BL21(DE3), Ni-NTA; monomer

OhLac [2] = test system: T1, OhLac; conditions: pH 3.0, 50°C, Cu2+ 0.25 mM
OhLac [3] = test system: T1, OhLac; conditions: pH 5.0, 40°C, Cu2+ 0.50 mM

Km (OhLac [1]): 1130 µM
SMILES: COc1cccc(OC)c1O [2,6-DMP]

Km (OhLac [2]): 1060 µM
SMILES: CCn1c(=NN=c2sc3cc(S(=O)(=O)O)ccc3n2CC)sc2cc(S(=O)(=O)O)ccc21 [ABTS]

Km (OhLac [3]): 523 ± 9.2 µM
SMILES: COc1ccccc1O [guaiacol]
